The species entered for one series is Homo sapiens. In words: Selectivity ratio of IC50 for recombinant human IDO1 S167A mutant expressed in Escherichia coli SG13009(pREP4) to IC50 for recombinant human IDO1 expressed in bacterial expression system.
The target of series [1] is T1, Indoleamine 2,3-dioxygenase 1 (Homo sapiens, UniProt P14902). Put plainly: Inhibition of recombinant human IDO1 expressed in bacterial expression system using L-Tryptophan as substrate after 25 mins in absence of GSH and presence of tween20 by fluorescence assay.
Target sequence in this assay (P14902 whole entry): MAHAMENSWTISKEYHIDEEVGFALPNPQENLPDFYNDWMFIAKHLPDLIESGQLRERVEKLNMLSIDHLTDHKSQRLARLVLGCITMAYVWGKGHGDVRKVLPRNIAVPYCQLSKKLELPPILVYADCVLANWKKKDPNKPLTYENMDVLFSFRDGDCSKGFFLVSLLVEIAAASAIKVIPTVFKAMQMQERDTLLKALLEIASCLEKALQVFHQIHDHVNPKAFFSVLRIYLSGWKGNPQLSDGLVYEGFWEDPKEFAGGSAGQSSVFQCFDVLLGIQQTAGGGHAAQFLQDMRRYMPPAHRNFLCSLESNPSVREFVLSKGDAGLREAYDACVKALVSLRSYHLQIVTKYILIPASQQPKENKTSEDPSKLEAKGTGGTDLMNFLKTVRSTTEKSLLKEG
In series [2] the target is Indoleamine 2,3-dioxygenase 1 (Homo sapiens, UniProt P14902, S167A).
Sequence of Indoleamine 2,3-dioxygenase 1 (Homo sapiens, UniProt P14902, S167A) (P14902 whole entry S167A): as the sequence (P14902 whole entry) above, with S167A counted along it
Series [3] concerns Indoleamine 2,3-dioxygenase 1 (Homo sapiens), P14902 [S167A]. In words: Inhibition of recombinant human IDO1 S167A mutant expressed in Escherichia coli SG13009(pREP4) at 20 uM using L-Tryptophan as substrate after 25 mins by fluorescence assay relative to control.
Sequence of Indoleamine 2,3-dioxygenase 1 (Homo sapiens), P14902 [S167A] (P14902 whole entry S167A): as the sequence (P14902 whole entry) above, with S167A counted along it
A short description of series [4]: Cytotoxicity against mouse LLTC cells assessed as reduction in cell viability after 24 hrs by MTT assay. It counts as cell-based. Conditions: read-out: LC50. A general note: Tetrazolium dyes change colour on reduction, which living cells bring about.
Series [5] has as its target T1, Indoleamine 2,3-dioxygenase 1. In words: Inhibition of full length recombinant human His-tagged IDO1 expressed in mouse LLTC cells using L-tryptophan as substrate after 24 hrs. The class given is cell-based.
Target sequence in this assay (P14902 whole entry): as the sequence (P14902 whole entry) above
Series [6] shares this target. Put plainly: Inhibition of recombinant human IDO1 expressed in bacterial expression system at 250 uM using L-Tryptophan as substrate after 25 mins by fluorescence assay relative to control.
Target sequence in this assay (P14902 whole entry, looked up): as the sequence (P14902 whole entry) above
Series [7] has the same target. Put plainly: Inhibition of recombinant human IDO1 expressed in bacterial expression system at 400 uM using L-Tryptophan as substrate after 25 mins by fluorescence assay relative to control.
Target sequence in this assay (P14902 whole entry, looked up): as the sequence (P14902 whole entry) above
For series [8] the target is unchanged. Put plainly: Inhibition of recombinant human IDO1 expressed in bacterial expression system using L-Tryptophan as substrate after 25 mins in presence of GSH and tween20 by fluorescence assay.
Target sequence in this assay (P14902 whole entry): as above
For series [9] the target is unchanged. In words: Inhibition of recombinant human IDO1 expressed in bacterial expression system using L-Tryptophan as substrate after 25 mins in absence of GSH and tween20 by fluorescence assay.
Target sequence in this assay (P14902 whole entry): as above

With `Cc1cc(I)ccc1Nc1cc2nonc2cc1C(=O)O`, the Ratio IC50 in the series filed under Homo sapiens came out at 1. The figures for the IC50 in series [1] and in series [2] were 41 µM and 42 µM, respectively.
In the case of `CC(=O)OCCn1c2nc(=O)[nH]c(=O)c-2nc2cc(C)c(C)cc21`, the Ratio IC50 in the series filed under Homo sapiens turned out to be 32. Besides, the inhibition (in general, the relative decrease from the control value, in per cent) in [3] is -8%. Besides, the figures for the IC50 in series [1] and in series [2] were 31.3 µM and 1000 µM, respectively.
With `O=[N+]([O-])c1ccc(NCSc2ccc(Cl)cc2)cc1`, the CC50 at 24 h in series [4] came to 40 µM. Besides, in the series filed under Homo sapiens, the Ratio IC50 was determined as 0.125. The IC50 (in general, the midpoint of a concentration-inhibition curve) stood at 0.8 µM in series [1] and 0.1 µM in series [2].
`Sc1ccc(Cl)cc1`: the CC50 at 24 h in [4] stood at 35 µM. For the same compound, in the series filed under Homo sapiens, the Ratio IC50 stood at 0.5. Further, the IC50 in series [5] was determined as 9.2 µM; in series [1], 7.9 µM; in series [2], 3.5 µM.
Turning to `COc1c(O)ccc2c1CN1CCc3cc4c(cc3C1C2)OCO4` (configuration not stated), the Ratio IC50 in the series filed under Homo sapiens came out at 28.1. The IC50 is 35.6 µM in series [1] and 1000 µM in series [2].
With `C=Cc1cc(OC)c2c(c1)c(=O)oc1c2cc(OC)c2c(O)ccc([C@@H]3O[C@H](C)[C@H](O)[C@@](C)(O)[C@H]3O)c21`, the Ratio IC50 in the series filed under Homo sapiens was determined as 10.2. The inhibition in series [3] stood at 8%. Further, the IC50 in series [1] was 22.6 µM; in [2], 230 µM.
Take `O/N=C1\c2ccccc2NC1c1ccccc1` (configuration not stated): the Ratio IC50 in the series listed under Homo sapiens turned out to be 1. The values for the IC50 in series [1] and in series [2] were 510 µM and 366 µM, respectively.
On to `O=[N+]([O-])c1cccc2nsnc12`, for which the Ratio IC50 in the series listed under Homo sapiens was 2. The results for the IC50 in [1] and in series [2] were 320 µM and 614 µM, respectively.
`CCn1c2ccccc2nc2cc3c(cc21)c(Cl)c(=O)c1ccccc13`: the Ratio IC50 in the series listed under Homo sapiens was 23.1. Also, in series [3], the inhibition was determined as 2%. Besides, the IC50 in series [1] turned out to be 42.5 µM; in [2] it was 980 µM.
For the compound `c1ccc(-c2nc3c4ccccc4c4ccccc4c3[nH]2)cc1`, in series [6], the inhibition was determined as 8%.
Turning to `O=C(O)c1cc(F)c2nonc2c1Nc1ccc(I)cc1F`, the CC50 at 24 h in series [4] was above 233 µM. In the series listed under Homo sapiens, the Ratio IC50 was 1. Moreover, the IC50 in series [5] is 168 µM; in series [1] it was 43 µM; in series [2], 47 µM.
Regarding `O=[N+]([O-])c1ccccc1NCSc1ccc(Cl)cc1`, the CC50 at 24 h in series [4] was 52 µM. Besides, the IC50 came out at 6.3 µM in series [5] and 63 µM in series [1].
Take `COc1ccc(C2=[N+]([O-])c3ccccc3C2=O)cc1`: the CC50 at 24 h in series [4] came out at 42 µM. Further, the Ratio IC50 in the series listed under Homo sapiens came out at 39. Besides, the values for the IC50 in series [5], in [1] and in [2] were 2.3 µM, 1.6 µM and 63 µM, respectively.
For the compound `CC1=NC(SCc2ccc(Cl)cc2Cl)=NC(=O)C1`, the CC50 at 24 h in series [4] is above 125 µM. For the same compound, in series [7], the inhibition is -8%. Further, the IC50 in [5] turned out to be 217 µM.
As to `Nc1nonc1C(=NO)Nc1ccc(F)c(Cl)c1`, the CC50 at 24 h in [4] was above 5 µM.
For the compound `Cc1ccccc1-c1nc2c3ccccc3c3ccccc3c2[nH]1`, the Ratio IC50 in the series listed under Homo sapiens was determined as 1. In addition, the half-maximal inhibitory concentration (IC50) is 512 µM in series [1] and 464 µM in series [2].
For `Oc1ccccc1-c1nc2ccccc2[nH]1`, the inhibition in series [7] came to 1%.
As for `c1ccc(-c2c[nH]cn2)cc1`, in [4], the CC50 at 24 h was above 1150 µM.
For `COc1cc2c(cc1OC)[N+]([O-])=C(c1ccccc1)C2=O`, the IC50 was 1.5 µM in [8]; 9.3 µM in series [9]; 4.3 µM in series [5]; 4.1 to 60 µM in series [1]; 206 to 1000 µM in series [2]. In addition, the CC50 at 24 h in series [4] was 25 µM. The Ratio IC50 in the series listed under Homo sapiens fell in the range of 16.7 to 50. Further, the inhibition in series [3] was 0%.
In the case of `CC[C@@H](CNc1cc(OC)cc2cccnc12)NC1CCCCC1`, the Ratio IC50 in the series listed under Homo sapiens came to 18.5. In series [3], the inhibition is -6%. Further, the IC50 in series [1] is 54.1 µM; in series [2], 1000 µM.
The matching figures for `O=c1c(O)cccc2cc(O)c(O)c(O)c12` [PURPUROGALLIN]: 16.7, -4%, 60 µM and 1000 µM.
`O=[N+]([O-])c1ccc(Sc2ccc(F)cc2)c2nonc12`: in series [4], the CC50 at 24 h was above 50 µM. For the same compound, in the series listed under Homo sapiens, the Ratio IC50 is 2. For the same compound, the IC50 is 4.6 µM in series [5], 8.8 µM in series [1] and 17 µM in series [2].
With `Oc1cccc(-c2nc3c4ccccc4c4ccccc4c3[nH]2)c1`, the Ratio IC50 in the series filed under Homo sapiens worked out at 2. In addition, the IC50 in [1] stood at 112 µM; in series [2], 173 µM.
Take `COC(=O)c1cc(F)c2nonc2c1Nc1ccc(I)cc1F`: the inhibition in series [6] was determined as 3%.
`CC1=CC(C)(C)NC(=S)N1c1cccc2cc(S(N)(=O)=O)ccc12`: in the series listed under Homo sapiens, the Ratio IC50 was found to be 36.2. Also, the inhibition in series [3] was -8%. Further, the IC50 in series [1] stood at 27.6 µM; in series [2], 1000 µM.
Consider `O=C1C(c2ccccc2)=[N+]([O-])c2ccccc21`, for which the CC50 at 24 h in series [4] came to 14 µM. In the series filed under Homo sapiens, the Ratio IC50 turned out to be 3. Further, the results for the IC50 in series [5], in [1] and in series [2] were 2.3 µM, 0.87 µM and 3 µM, respectively.
Turning to `Cc1ccccc1-c1nc2ccccc2[nH]1`, the inhibition in series [7] is -2%.
As to `Cn1c2ccccc2c2ccc3c(c21)C(=O)C=CC3=O`, the Ratio IC50 in the series filed under Homo sapiens amounted to 23.5. Besides, in series [3], the inhibition was -2%. Moreover, the IC50 in [1] came to 42.5 µM; in [2], 1000 µM.
Regarding `O=C1c2ccccc2C(=O)C1c1ccccc1`, the inhibition in [7] is 20%.
On to `COc1ccc(Nc2ccc([N+](=O)[O-])c3nonc23)cc1`, for which the IC50 in series [1] was determined as 96 µM.
On the same count and under the same terms, the same measure for `O=[N+]([O-])c1ccc(Nc2ccc(Br)cc2)c2nonc12`: 68 µM.
For the compound `Fc1ccccc1-c1nc2c3ccccc3c3ccccc3c2[nH]1`, in the series listed under Homo sapiens, the Ratio IC50 stood at 0.5. For the same compound, the figures for the IC50 in series [1] and in [2] were 231 µM and 108 µM, respectively.
Consider `CC(=O)OC1=C(c2ccccc2)C(=O)c2ccccc21`, for which the half-inhibitory concentration (IC50) in series [1] stood at 266 µM.
Turning to `Cc1ccc2c(c1)c1ccc3c(c1n2C)C(=O)C=CC3=O`, in the series filed under Homo sapiens, the Ratio IC50 turned out to be 21.4. Further, the inhibition in series [3] is -4%. Moreover, the values for the IC50 in series [1] and in series [2] were 46.7 µM and 1000 µM, respectively.
On the same counts, the results for `COc1ccc2c(c1)c1ccc3c(c1n2C)C(=O)C=CC3=O` are 39.3, -5%, 25.5 µM and 1000 µM.
The matching figures for `COc1c(NC(C)=O)c2ccccc2c2ccccc12`: 28.1, -9%, 35.6 µM and 1000 µM.
Turning to `COC12C(COC(N)=O)C3=C(C(=O)C(C)=C(N)C3=O)N1CC1C2N1C` (configuration not stated), in the series listed under Homo sapiens, the Ratio IC50 worked out at 63.6. In [3], the inhibition was -4%. Also, the IC50 was found to be 15.7 µM in series [1] and 1000 µM in [2].
The matching figures for `O=[N+]([O-])c1ccc(Sc2cccc[n+]2[O-])c2nonc12`: 5 to 16.7, -1%, 24 to 60 µM and 108 to 1000 µM.
As for `Cc1cccc2c1c1ccc3c(c1n2C)C(=O)C=CC3=O`, the Ratio IC50 in the series listed under Homo sapiens amounted to 28.1. In series [3], the inhibition is -5%. The results for the IC50 in [1] and in series [2] were 35.6 µM and 1000 µM, respectively.
For the compound `Cc1ccc(NCSc2ccc(Cl)cc2)cc1`, in series [6], the inhibition is -1%.

Values taken from ChEMBL document CHEMBL4007389, “Discovery and evaluation of inhibitors to the immunosuppressive enzyme indoleamine 2,3-dioxygenase 1 (IDO1): Probing the active site-inhibitor interactions” (Eur J Med Chem, 2017).
